# Experimental data: ChEMBL document CHEMBL5528083, “Discovery of a Novel Thienopyrimidine Compound as a Urate Transporter 1 and Glucose Transporter 9 Dual Inhibitor with Improved Efficacy and Favorable Druggability” (J Med Chem, 2024)
# What was measured:
# [1] = biological target: Xanthine dehydrogenase/oxidase (Bos taurus, UniProt P80457); assay: Inhibition of bovine XOD using xanthine as substrate assessed as inhibitory ratio at 10 uM by spectrophotometric analysis relative to control; conditions: cattle
# Xanthine dehydrogenase/oxidase, sequence (P80457 whole entry): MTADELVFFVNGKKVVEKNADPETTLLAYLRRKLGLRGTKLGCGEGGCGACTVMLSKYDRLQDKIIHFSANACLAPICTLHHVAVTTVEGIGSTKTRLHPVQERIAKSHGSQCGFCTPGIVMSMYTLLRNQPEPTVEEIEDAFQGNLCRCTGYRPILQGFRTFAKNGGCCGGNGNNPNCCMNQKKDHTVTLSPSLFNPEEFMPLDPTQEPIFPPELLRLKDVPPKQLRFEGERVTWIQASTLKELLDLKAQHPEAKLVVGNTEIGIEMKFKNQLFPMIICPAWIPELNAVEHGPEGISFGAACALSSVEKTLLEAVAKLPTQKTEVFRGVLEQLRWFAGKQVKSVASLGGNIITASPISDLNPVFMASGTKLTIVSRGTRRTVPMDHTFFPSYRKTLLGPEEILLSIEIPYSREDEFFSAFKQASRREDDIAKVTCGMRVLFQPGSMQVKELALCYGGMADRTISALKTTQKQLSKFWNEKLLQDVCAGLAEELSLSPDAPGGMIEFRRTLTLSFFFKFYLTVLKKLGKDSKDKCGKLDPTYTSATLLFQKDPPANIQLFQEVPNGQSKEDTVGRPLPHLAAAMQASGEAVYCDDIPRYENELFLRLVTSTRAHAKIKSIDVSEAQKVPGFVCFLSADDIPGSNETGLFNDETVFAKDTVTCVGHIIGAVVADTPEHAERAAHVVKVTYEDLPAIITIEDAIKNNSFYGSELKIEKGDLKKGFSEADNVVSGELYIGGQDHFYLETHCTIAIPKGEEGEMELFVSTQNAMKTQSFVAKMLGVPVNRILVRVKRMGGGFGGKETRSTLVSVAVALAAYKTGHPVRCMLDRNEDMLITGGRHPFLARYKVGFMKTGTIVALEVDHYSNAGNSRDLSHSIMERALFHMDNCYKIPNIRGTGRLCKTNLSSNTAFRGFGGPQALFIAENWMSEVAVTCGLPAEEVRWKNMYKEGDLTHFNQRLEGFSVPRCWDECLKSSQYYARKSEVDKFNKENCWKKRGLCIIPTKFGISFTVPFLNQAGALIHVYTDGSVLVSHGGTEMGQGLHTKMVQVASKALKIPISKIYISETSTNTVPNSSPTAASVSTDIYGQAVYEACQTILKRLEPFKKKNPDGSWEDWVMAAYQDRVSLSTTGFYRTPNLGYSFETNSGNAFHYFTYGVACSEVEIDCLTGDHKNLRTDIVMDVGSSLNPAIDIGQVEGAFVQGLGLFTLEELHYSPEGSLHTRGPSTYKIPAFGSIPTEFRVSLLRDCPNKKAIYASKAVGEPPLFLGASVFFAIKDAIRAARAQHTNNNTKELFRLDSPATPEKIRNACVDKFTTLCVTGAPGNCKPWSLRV
# Mus musculus [2] = organism: Mus musculus; assay: Reduction in serum uric acid level in acute hyperuricemia state Kunming mouse model assessed as SUA level by measuring decrease ratio relative to control; type: functional; design: concentration or dose not given beside the values
# Mus musculus [3] = organism: Mus musculus; assay: Reduction in serum uric acid level in acute hyperuricemia state Kunming mouse model assessed as SUA level; type: functional
# [4] = biological target: T1, Solute carrier family 2, facilitated glucose transporter member 9 (Mus musculus) (UniProt Q3T9X0); assay: Inhibition of mouse EGFP-tagged GLUT9 expressed in HEK293T cells assessed as inhibition rate by measuring relative current at 5 uM by patch clamp electrophysiological analysis relative to control; type: cell-based; design: scale not given: the % may be the effect or the level left
# T1 sequence (whole entry): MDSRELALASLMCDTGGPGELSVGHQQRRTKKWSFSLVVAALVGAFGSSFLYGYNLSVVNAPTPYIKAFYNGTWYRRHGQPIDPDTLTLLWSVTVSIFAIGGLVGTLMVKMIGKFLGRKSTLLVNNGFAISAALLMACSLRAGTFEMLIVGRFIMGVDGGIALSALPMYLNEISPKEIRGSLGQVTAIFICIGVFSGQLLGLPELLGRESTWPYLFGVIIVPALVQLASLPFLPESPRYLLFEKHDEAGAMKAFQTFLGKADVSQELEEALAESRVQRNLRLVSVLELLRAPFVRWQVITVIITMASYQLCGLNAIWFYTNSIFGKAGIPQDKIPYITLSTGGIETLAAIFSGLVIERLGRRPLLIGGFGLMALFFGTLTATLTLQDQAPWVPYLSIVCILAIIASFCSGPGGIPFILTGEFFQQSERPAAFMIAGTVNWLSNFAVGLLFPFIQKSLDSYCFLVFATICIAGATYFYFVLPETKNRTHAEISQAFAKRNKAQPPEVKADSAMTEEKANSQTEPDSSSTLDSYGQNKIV
# [5] = Toxicity in Kunming female mouse assessed as coagulation necrosis of hepatocyte at 100 mg/kg, po administered every other day for 14 days by H and E staining based assay; type: organism-based; conditions: 336 h, time 14 day
# Mus musculus [6] = assay: Reduction in serum uric acid level in acute hyperuricemia state Kunming mouse model assessed as SUA level at 2 mg/kg, po (reference value: 1037 +/- 106.59 uM); type: functional
# Mus musculus [7] = organism: Mus musculus; assay: Reduction in serum uric acid level in chronic hyperuricemia state Kunming mouse model assessed as SUA level by measuring decrease ratio relative to control; type: functional; design: scale not given: the % may be the effect or the level left
# Mus musculus [8] = organism: Mus musculus; assay: Reduction in serum uric acid level in chronic hyperuricemia state Kunming mouse model assessed as SUA level (reference value: 660.33 +/- 103.57 uM); type: functional
# Rattus norvegicus [9] = assay: Reduction in serum uric acid level in po dosed acute hyperuricemia state Sprague-Dawley rat model assessed as SUA level (reference value: 955.20 +/- 85.56 uM); type: functional
# [10] = Subacute toxicity in Kunming mouse assessed as abnormal behavior at 25 mg/kg, po administered every other day for 14 days; type: organism-based; conditions: in vivo, 336 h, time 14 day
# Mus musculus [11] = assay: Reduction in serum uric acid level in acute hyperuricemia state Kunming mouse model assessed as SUA level by measuring decrease ratio at 2 mg/kg, po relative to control; type: functional; design: scale not given: the % may be the effect or the level left
# Rattus norvegicus [12] = assay: Reduction in serum uric acid level in po dosed acute hyperuricemia state Sprague-Dawley rat model assessed as SUA level by measuring decrease ratio relative to control; type: functional; design: scale not given: the % may be the effect or the level left
# [13] = Toxicity in Kunming female mouse assessed as renal injury at 100 mg/kg, po administered every other day for 14 days by H and E staining based assay; type: organism-based; conditions: in vivo, 336 h, time 14 day
# [14] = Toxicity in Kunming female mouse assessed as balloon like degeneration of liver at 100 mg/kg, po administered every other day for 14 days by H and E staining based assay; type: organism-based; conditions: in vivo, 336 h, time 14 day
# [15] = Acute toxicity in Kunming mouse assessed as fatality rate at 1000 mg/kg, po administered as single dose monitored for 7 days; type: organism-based; conditions: Kunming, in vivo, time 7 day, read-out: Activity
# [16] = Acute toxicity in Kunming mouse assessed as fatality rate at 500 mg/kg, po administered as single dose monitored for 7 days; type: organism-based; conditions: Kunming, in vivo, time 7 day, read-out: Activity
smiles,measurement,setting,value
Cc1nc(-c2ccc(OCC(C)C)c(C#N)c2)sc1C(=O)O [FEBUXOSTAT],inhibition at 10 µM,[1],102%
CCc1oc2ccccc2c1C(=O)c1cc(Br)c(O)c(Br)c1 [BENZBROMARONE],Activity,Mus musculus [2],37.3%
same,Activity,Mus musculus [3],753.2 µM
same,Activity,[4],74.7%
O=C(O)CSc1nnc(Br)n1-c1ccc(C2CC2)c2ccccc12,Activity,[5],Toxic
same,Activity,Mus musculus [6],706.25 µM
same,Activity,Mus musculus [7],33.56%
same,Activity,Mus musculus [8],476 µM
same,Activity,Rattus norvegicus [9],685.6 µM
same,Activity,[10],Non-Toxic
same,Activity,Mus musculus [11],35.56%
same,Activity,Rattus norvegicus [12],31.77%
same,Activity,Mus musculus [2],28.5%
same,Activity,[13],Toxic
same,Activity,[14],Toxic
same,mortality at 168 h,[15],60%
same,inhibition at 10 µM,[1],5.72%
same,Activity,Mus musculus [3],841.2 µM
same,mortality at 168 h,[16],20%
CC(Sc1nc2ncccc2n1-c1ccc(C2CC2)c2ccccc12)C(=O)O (stereo not given),Activity,Mus musculus [6],706.25 µM
